Experimental data as given in patent US9422285B2, “Substituted pyrazolo[1,5-A]-pyridine-3-carboxamides and use thereof” (Bayer Pharma Aktiengesellschaft, priority 2014, dated 2016).
Counter-ions that a name gives are not always drawn.

Columns and labels:
[1] = molecular target: T1, recombinant guanylate cyclase reporter cell line (Rattus norvegicus, UniProt P19686+P20595); experiment: Effect on a recombinant guanylate cyclase reporter cell line (B-2); type: cell-based; details: in some cases mean values for individual determinations
T1 construct: expressed in transfected cells
T1 sequence (P19686 1-690): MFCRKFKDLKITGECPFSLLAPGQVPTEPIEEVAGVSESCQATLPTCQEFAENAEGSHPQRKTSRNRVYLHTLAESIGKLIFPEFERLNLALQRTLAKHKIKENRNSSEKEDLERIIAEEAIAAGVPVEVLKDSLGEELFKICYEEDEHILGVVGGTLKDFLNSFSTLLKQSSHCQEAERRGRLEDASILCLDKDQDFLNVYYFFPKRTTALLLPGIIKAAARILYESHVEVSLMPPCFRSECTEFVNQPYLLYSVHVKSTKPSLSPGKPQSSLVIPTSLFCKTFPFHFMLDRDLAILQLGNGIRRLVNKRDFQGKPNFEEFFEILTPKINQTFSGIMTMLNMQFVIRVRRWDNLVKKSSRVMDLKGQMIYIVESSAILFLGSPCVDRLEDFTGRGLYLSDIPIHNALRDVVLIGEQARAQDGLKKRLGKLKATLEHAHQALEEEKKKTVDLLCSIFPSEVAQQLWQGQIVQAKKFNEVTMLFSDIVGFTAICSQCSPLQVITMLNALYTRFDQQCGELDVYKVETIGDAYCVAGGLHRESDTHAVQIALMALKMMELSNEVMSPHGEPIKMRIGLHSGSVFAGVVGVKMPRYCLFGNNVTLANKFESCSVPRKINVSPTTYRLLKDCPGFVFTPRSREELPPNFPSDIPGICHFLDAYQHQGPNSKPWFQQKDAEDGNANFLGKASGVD
T1 sequence (P20595 1-619): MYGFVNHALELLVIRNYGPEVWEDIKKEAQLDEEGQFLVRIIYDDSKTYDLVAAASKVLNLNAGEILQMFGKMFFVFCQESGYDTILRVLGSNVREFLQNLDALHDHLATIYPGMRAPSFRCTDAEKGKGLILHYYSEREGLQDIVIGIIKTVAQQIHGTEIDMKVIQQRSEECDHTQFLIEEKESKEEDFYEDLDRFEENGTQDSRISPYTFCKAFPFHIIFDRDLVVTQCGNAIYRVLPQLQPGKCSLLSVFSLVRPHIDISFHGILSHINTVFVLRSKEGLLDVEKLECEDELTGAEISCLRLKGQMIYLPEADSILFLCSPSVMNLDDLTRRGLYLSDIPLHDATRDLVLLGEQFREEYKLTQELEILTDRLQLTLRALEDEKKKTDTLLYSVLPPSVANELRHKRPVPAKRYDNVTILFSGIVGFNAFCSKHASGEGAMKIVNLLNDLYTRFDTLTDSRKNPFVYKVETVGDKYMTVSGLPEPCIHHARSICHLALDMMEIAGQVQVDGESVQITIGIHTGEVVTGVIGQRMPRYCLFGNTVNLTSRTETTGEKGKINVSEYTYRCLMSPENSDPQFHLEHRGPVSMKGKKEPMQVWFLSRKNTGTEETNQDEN
Method: B-2. Effect on a Recombinant Guanylate Cyclase Reporter Cell Line
The cellular effect of the inventive compounds is determined using a recombinant guanylate cyclase reporter cell line, as described in F. Wunder et al., Anal. Biochem. 339, 104-112 (2005).
Representative MEC values (MEC=minimum effective concentration) for the inventive compounds are shown in the table below (in some cases as mean values for individual determinations): […]

[2] = Pharmacokinetic parameters following intravenous administration in rats (B-6); type: in vivo, male Wistar rats
Description: • Klaus Witte, Kai Hu, Johanna Swiatek, Claudia Müssig, Georg Ertl and Bjorn Lemmer: Experimental heart failure in rats: effects on cardiovascular circadian rhythms and on myocardial β-adrenergic signaling. Cardiovasc Res 47 (2): […], 2000; Kozo Okamoto: Spontaneous hypertension in rats. Int Rev Exp Pathol 7: 227-270, 1969; Maarten van den Buuse: Circadian Rhythms of Blood Pressure, Heart Rate, and Locomotor Activity in Spontaneously Hypertensive Rats as Measured With Radio-Telemetry. Physiology & Behavior 55(4): 783-787, 1994 B-6. Determination of Pharmacokinetic Parameters Following Intravenous and Oral Administration
The pharmacokinetic parameters of the inventive compounds are determined in male CD-1 mice, male Wistar rats and female beagles. Intravenous administration in the case of mice and rats is effected by means of a species-specific plasma/DMSO formulation, and in the case of dogs by means of a water/PEG400/ethanol formulation. In all species, oral administration of the dissolved substance is performed via gavage, based on a water/PEG400/ethanol formulation. The removal of blood from rats is simplified by inserting a silicone catheter into the right Vena jugularis externa prior to substance administration. The operation is effected at least one day prior to the experiment with isofluran anaesthesia and administration of an analgesic (atropine/rimadyl (3/1) 0.1 ml s.c.). The blood is taken (generally more than 10 time points) within a time window including terminal time points of at least 24 to a maximum of 72 hours after substance administration. The blood is removed into heparinized tubes. The blood plasma is then obtained by centrifugation; if required, it can be stored at −20° C. until further processing.
An internal standard (which may also be a chemically unrelated substance) is added to the samples of the inventive compounds, calibration samples and qualifiers, and there follows protein precipitation by means of acetonitrile in excess. Addition of a buffer solution matched to the LC conditions, and subsequent vortexing, is followed by centrifugation at 1000 g. The supernatant is analysed by means of LC-MS/MS using C18 reversed-phase columns and variable mobile phase mixtures. The substances are quantified via the peak heights or areas from extracted ion chromatograms of specific selected ion monitoring experiments.
The plasma concentration/time plots determined are used to calculate the pharmacokinetic parameters such as AUC, Cmax, t1/2 (terminal half-life), F (bioavailability), MRT (mean residence time) and CL (clearance), by means of a validated pharmacokinetic calculation program.
Since the substance quantification is performed in plasma, it is necessary to determine the blood/plasma distribution of the substance in order to be able to adjust the pharmacokinetic parameters correspondingly. For this purpose, a defined amount of substance is incubated in heparinized whole blood of the species in question in a rocking roller mixer for 20 min. After centrifugation at 1000 g, the plasma concentration is measured (by means of LC-MS/MS; see above) and determined by calculating the ratio of the Cblood/Cplasma value.

SMILES	MEC (minimum effective concentration) [1] [µM]	other results
CCCC(C)(N)CNC(=O)c1c(C)nn2c(OCc3c(F)cccc3F)cc(C)cc12 (single isomer, unassigned) [Example 39, ent-N-(2-Amino-2-methylpentyl)-7-[(2,6-difluorobenzyl)oxy]-2,5-dimethylpyrazolo[1,5-a]pyridine-3-carboxamide]	0.3	AUCnormal [2]: 0.53 kg·h/L; CLblood [2]: 41 mL/min/kg; MRT ([2]; male, Wistar, rat, plasma, mean residence time): 7.8 h; half-life ([2]; male, Wistar, rat, plasma, terminal half-life): 6.2 h
Cc1cc(OCc2c(F)cccc2F)n2nc(C)c(C(=O)NCCS(N)(=O)=O)c2c1 [Example 61, 7-[(2,6-Difluorobenzyl)oxy]-2,5-dimethyl-N-(2-sulphamoylethyl)pyrazolo[1,5-a]pyridine-3-carboxamide]	10	–
Cc1cc(OCc2c(F)cccc2F)n2nc(C)c(C(=O)NNC(=O)CN(C)C)c2c1 [Example 67, 7-[(2,6-Difluorobenzyl)oxy]-N′-[(dimethylamino)acetyl]-2,5-dimethylpyrazolo[1,5-a]pyridine-3-carbohydrazide]	3.0	–
Cc1cc(OCc2c(F)cccc2F)n2nc(C)c(C(=O)NC[C@H]3CC[C@H](C(=O)O)CC3)c2c1 [Example 36, trans-4-{[({7-[(2,6-Difluorobenzyl)oxy]-2,5-dimethylpyrazolo[1,5-a]pyridin-3-yl}carbonyl)amino]methyl}cyclohexanecarboxylic Acid]	3.0	–
Cc1cc(OCc2c(F)ccc(F)c2F)n2nc(C)c(C(=O)NC3CC3c3ccccc3)c2c1 (racemic) [Example 10, rac-2,5-Dimethyl-N-(2-phenylcyclopropyl)-7-[(2,3,6-trifluorobenzyl)oxy]pyrazolo[1,5-a]pyridine-3-carboxamide]	1.0	–
Cc1cc(OCc2c(F)cccc2F)n2nc(C)c(C(=O)NC(CN)c3cccc(Br)c3)c2c1 (racemic) [Example 126, rac-N-[2-Amino-1-(3-bromphenyl)ethyl]-7-[(2,6-difluorobenzyl)oxy]-2,5-dimethylpyrazolo[1,5-a]pyridine-3-carboxamide]	1.0	–
Cc1cc(OCc2c(F)cccc2F)n2nc(C)c(C(=O)NCC(N)c3cnn(C)c3)c2c1 (racemic) [Example 136, rac-N-[2-Amino-2-(1-methyl-1H-pyrazol-4-yl)ethyl]-7-[(2,6-difluorobenzyl)oxy]-2,5-dimethylpyrazolo[1,5-a]pyridine-3-carboxamide]	10	–
COc1ccc2c(c1)C(NC(=O)c1c(C)nn3c(OCc4c(F)cccc4F)cc(C)cc13)CCN2 (racemic) [Example 102, rac-7-[(2,6-Difluorobenzyl)oxy]-N-(6-methoxy-1,2,3,4-tetrahydroquinolin-4-yl)-2,5-dimethylpyrazolo[1,5-a]pyridine-3-carboxamide]	1.0	–
CCCC(C)(N)CNC(=O)c1c(C(F)(F)F)nn2c(OCc3c(F)cccc3F)cc(C)cc12 (single isomer, unassigned) [Example 52, ent-N-(2-Amino-2-methylpentyl)-7-[(2,6-difluorobenzyl)oxy]-5-methyl-2-(trifluoromethyl)pyrazolol[1,5-a]pyridine-3-carboxamide trifluoroacetate]	0.3	–
Cc1cc(OCc2c(F)cccc2F)n2nc(C)c(C(=O)N[C@@H]3CNC[C@@H]3F)c2c1 (relative stereo) [Example 128, rel-7-[(2,6-Difluorobenzyl)oxy]-N-[(3R,4S)-4-fluoropyrrolidin-3-yl]-2,5-dimethylpyrazolo[1,5-a]pyridine-3-carboxamide]	1.0	–
Cc1cc(OCc2c(F)cccc2F)n2nc(C)c(C(=O)NC3CC(=O)N(C)c4ccccc43)c2c1 (racemic) [Example 77, rac-7-[(2,6-Difluorobenzyl)oxy]-2,5-dimethyl-N-(1-methyl-2-oxo-1,2,3,4-tetrahydroquinolin-4-yl)pyrazolo[1,5-a]pyridine-3-carboxamide trifluoroacetate]	0.3	–
CCCC(C)(N)CNC(=O)c1c(C)nn2c(OCc3c(F)ccc(F)c3F)cc(C)cc12 (single isomer, unassigned) [Example 4, ent-N-(2-Amino-2-methylpentyl)-2,5-dimethyl-7-[(2,3,6-trifluorobenzyl)oxy]pyrazolo[1,5-a]pyridine-3-carboxamide]	0.2	–
CCCC(C)(N)CNC(=O)c1c(C)nn2c(OCc3cccc(F)c3F)cc(C)cc12 (racemic) [Example 158, rac-N-(2-Amino-2-methylpentyl)-7-[(2,3-difluorobenzyl)oxy]-2,5-dimethylpyrazolo[1,5-a]pyridine-3-carboxamide]	1.0	–
Cc1cc(OCc2c(F)cccc2F)n2nc(C)c(C(=O)NCC(C)(N)CCOCc3ccccc3)c2c1 (racemic) [Example 78, rac-N-[2-Amino-4-(benzyloxy)-2-methylbutyl]-7-[(2,6-difluorobenzyl)oxy]-2,5-dimethylpyrazolo[1,5-a]pyridine-3-carboxamide]	1.0	–
Cc1cc(OCc2c(F)cccc2F)n2nc(C)c(C(=O)NC3c4cccc(F)c4OC3C)c2c1 (stereo not shown) [Example 111, 7-[(2,6-Difluorobenzyl)oxy]-N-(7-fluoro-2-methyl-2,3-dihydro-1-benzofur-3-yl)-2,5-dimethylpyrazolo[1,5-a]pyridine-3-carboxamide]	1.0	–
